Our source for the IC50 and viability values is patent publication US20070010548A1, “Compounds having inhibitive activity of phosphatidylinositol 3-kinase and methods of use thereof” (ZENTARIS GmbH, priority 2003, published 2007).

Molecules are shown by their SMILES. Like-named read-outs stand apart in the source and are kept apart here.

The target in assay [1] is T1, PI 3-K alpha (Homo sapiens, UniProt P42336).
T1 construct: made in house; host or cells: Sf9 cells, baculovirus expression system; constructs from the lab of Dr. Alex Toker, Harvard University
T1 sequence (P42336 whole entry, species assumed): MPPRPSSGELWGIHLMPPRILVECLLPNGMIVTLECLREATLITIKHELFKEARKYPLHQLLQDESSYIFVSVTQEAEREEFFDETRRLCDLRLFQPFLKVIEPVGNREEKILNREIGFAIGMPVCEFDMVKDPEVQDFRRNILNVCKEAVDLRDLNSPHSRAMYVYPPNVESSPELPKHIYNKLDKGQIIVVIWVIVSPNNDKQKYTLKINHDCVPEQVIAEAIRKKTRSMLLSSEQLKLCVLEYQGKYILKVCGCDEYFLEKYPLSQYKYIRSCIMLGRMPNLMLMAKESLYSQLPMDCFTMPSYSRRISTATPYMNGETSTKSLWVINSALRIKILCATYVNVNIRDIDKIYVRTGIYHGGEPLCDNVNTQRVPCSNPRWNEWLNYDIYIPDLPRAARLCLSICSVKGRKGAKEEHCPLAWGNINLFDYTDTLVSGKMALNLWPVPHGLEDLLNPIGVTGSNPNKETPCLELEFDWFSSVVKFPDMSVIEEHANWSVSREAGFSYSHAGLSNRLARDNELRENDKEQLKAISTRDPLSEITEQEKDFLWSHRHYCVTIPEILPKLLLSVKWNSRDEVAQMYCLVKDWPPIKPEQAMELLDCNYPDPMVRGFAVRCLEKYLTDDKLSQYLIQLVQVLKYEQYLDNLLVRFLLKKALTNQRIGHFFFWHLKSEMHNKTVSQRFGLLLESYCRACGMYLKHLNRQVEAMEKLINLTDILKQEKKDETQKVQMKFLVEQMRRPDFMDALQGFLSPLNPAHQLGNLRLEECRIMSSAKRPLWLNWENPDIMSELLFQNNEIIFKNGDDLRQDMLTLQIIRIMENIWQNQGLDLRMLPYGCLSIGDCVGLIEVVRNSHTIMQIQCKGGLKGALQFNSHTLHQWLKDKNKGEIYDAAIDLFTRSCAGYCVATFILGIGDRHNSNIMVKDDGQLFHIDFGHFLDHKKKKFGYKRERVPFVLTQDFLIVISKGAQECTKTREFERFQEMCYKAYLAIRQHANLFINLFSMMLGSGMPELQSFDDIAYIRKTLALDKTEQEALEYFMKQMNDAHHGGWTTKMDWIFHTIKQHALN
T1 sequence (P27986 whole entry partner, species assumed): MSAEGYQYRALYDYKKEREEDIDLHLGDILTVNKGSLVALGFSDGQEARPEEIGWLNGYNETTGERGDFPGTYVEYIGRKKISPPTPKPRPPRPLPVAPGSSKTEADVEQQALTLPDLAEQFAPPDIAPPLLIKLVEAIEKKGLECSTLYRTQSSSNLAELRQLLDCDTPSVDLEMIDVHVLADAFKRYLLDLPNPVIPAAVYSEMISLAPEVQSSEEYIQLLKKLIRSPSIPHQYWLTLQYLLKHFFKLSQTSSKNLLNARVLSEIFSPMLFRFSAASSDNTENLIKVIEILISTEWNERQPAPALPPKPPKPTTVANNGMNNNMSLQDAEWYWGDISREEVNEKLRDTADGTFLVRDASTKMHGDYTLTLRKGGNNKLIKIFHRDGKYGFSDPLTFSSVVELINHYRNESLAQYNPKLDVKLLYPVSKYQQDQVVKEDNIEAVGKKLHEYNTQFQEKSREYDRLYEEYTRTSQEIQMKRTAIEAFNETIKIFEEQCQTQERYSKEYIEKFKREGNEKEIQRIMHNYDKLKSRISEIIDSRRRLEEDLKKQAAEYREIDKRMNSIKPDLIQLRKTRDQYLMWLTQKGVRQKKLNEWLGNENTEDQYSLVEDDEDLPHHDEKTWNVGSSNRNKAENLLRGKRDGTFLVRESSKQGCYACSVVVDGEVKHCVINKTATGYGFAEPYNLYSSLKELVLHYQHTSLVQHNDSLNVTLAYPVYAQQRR
Briefly: PI 3-K activity assay, IC50 determination (AlphaScreen luminescent or Fluorescence Polarization). The format is biochemical. To be noted: inhibition of enzyme activity in vitro. Here is the method:
Recombinant heterodimeric PI 3-K alpha, consisting of a p110 catalytic subunit and a GST-tagged p85 regulatory subunit, was expressed in Sf9 cells using a baculoviras expression system. Expression constructs were obtained from the lab of Dr. Alex Toker, Harvard University. The method is well known to those skilled in the art and is also described in Stoyanov et al., Science 269, 690-693 (1995).and Stoyanova et al., Biochem. J. 324 :489-495. (1997).
PI 3-kinase reactions were performed in a reaction buffer containing 5 mM HEPES, pH 7, 2.5 mM MgCl2, and 25 μM ATP, containing 50 ng of recombinant PI 3-K with 10 picomoles of diC8 PI(4,5)P2 (Echelon Biosciences) as the substrate. The reactions were allowed to proceed at room temperature for 1-3 hours, then quenched by the addition of EDTA to a final concentration of 10 mM. The final reaction volumes were 10 μl. The compounds to be tested for inhibition were added to a final concentration of 1 μM from stocks in DMSO. The final concentration of DMSO was 1%.
Conversion of the substrate to PI(3,4,5)P3 was determined using a competition assay using Amplified Luminescent Proximity Homogeneous Assay (ALPHA®) technology developed by Perkin Elmer. 0.25 picomoles of recombinant GST-Grp1-PH domain protein and 0.25 picomoles of biotinylated diC6 PI(3,4,5)P3 (Echelon Biosciences) were added to each reaction mixture. Donor and Acceptor beads from the AlphaScreen® GST (Glutathione-S-Transferase) Detection Kit (PerkinElmer) were added to a final concentration of 20 μg/ml. The final volume was 25 μl. The reactions were incubated at 37° C. for two hours, and the luminescent signal was read on a Fusion α microplate reader. Percent inhibition of enzyme activity was determined by comparison to no enzyme (100% inhibition) and DMSO alone (0% inhibition) controls.
An alternate method used for detecting substrate conversion to PI(3,4,5)P3 was a competitive Fluorescence Polarization assay. 125 picomoles of recombinant GST-Grp1-PH domain protein and 0.25 picomoles of TAMRA-I(1,3,4,5)P4 (Echelon Biosciences) were added to each reaction mixture The final volume was 25 μl. Polarization values were measured on a microplate reader using 550 nm excitation/580 nm polarizing emission filters. BODIPY-TMR-I(1,3,4,5)P4 or BODIPY-TMR-PI(3,4,5)P3 could substitute as the fluorescent tracers in this assay. Percent inhibition of enzyme activity was determined by comparison to no enzyme (100% inhibition) and DMSO alone (0% inhibition) controls.
A library of potential PI 3-K inhibitors was tested for activity against PI 3-K alpha in the following manner. From the active compounds identified, twelve were selected as representatives from different chemical groups present in the library and subjected to further analysis. IC50 values were determined for the selected compounds of the present invention. Enzyme activity assays were performed as previously described, in the presence of a range of compound concentrations to allow determination of IC50 values. Enzyme activity and percent inhibition was determined using the AlphaScreen® luminescent assay or a Fluorescence Polarization assay as previously described. These inhibitors may also show activity against other PI 3-K isoforms, including PI 3-K beta, gamma, and delta.
On the technique in general: In Alpha technology, singlet oxygen from a donor bead excites a nearby acceptor bead.

In assay [2] the test system is OVCAR3 cells. The experiment in a line: MTT cell proliferation/viability assay, OVCAR3 ovarian cancer cells. The format is cell-based. To be noted: Homo sapiens. Here is the method:
The ovarian cancer cell line SKOV3 is not altered in PI 3-K signaling and should be less sensitive to the anti-proliferative effects produced by treatment with PI 3-K inhibitors, while the OVCAR3 cell line, which is altered in PI 3-K signaling, via amplification of PI 3-K activity, should be sensitive. SKOV3 cells were seeded in 96-well cell culture plates (Greiner) at a density of 20,000 cells per well in McCoys 5A media (GibcoBRL) with 10% fetal calf serum and 20 mM L-glutamine. OVCAR3 cells were seeded at a density of 15,000 cells per well in RPMI 1640 media (GibcoBRL) containing 20 mM 1-glutamine, 0.01 ng/ml bovine insulin, 10 mM Hepes pH 7.4, 1 mM sodium pyruvate, 2.5 g/L glucose, and 20% fetal calf serum. After 24 hours, compounds were added to cell media to a final concentration of 1 μM, and the cells were grown in the presence of the compounds for 48 hours, in media containing 0.5% fetal calf serum. Viability was determined using a MTT cell proliferation assay (R and D Systems) and comparison to DMSO alone controls (100% viability). Compounds which result in reduced viability may act either by inhibiting cell proliferation or by inducing apoptosis (programmed cell death).
Many of these also show similar selective effects on cell growth. Table 2 summarizes the results of two separate cell proliferation experiments for selected compounds of the present invention.

The mark [3] stands for this setting: OVCAR-3, 48 hours, MTT, DMSO alone controls = 100% viability, Trial 1, read-out: Trial 1 OVCAR3 (viability).
Where [4] appears, read: OVCAR-3, 48 hours, MTT, DMSO alone controls = 100% viability, Trial 2, read-out: Trial 2 OVCAR3 (viability).
[5] abbreviates: OVCAR-3, average of Trial 1 and Trial 2, 48 hours, read-out: average OVCAR-3 (viability).

Usually IC50 stands for the concentration needed to halve the response being measured. `CC1(C)CC(=O)C2=C(C1)Nc1c(c(C(C)(C)C)nn1C(C)(C)C)C2c1ccc(OCc2ccccc2)c(OCc2ccccc2)c1` (stereo not shown) [Compound 963985] came in with a half-maximal inhibitory concentration (IC50) in assay [1] of 0.5 µM. That is a sub-micromolar value.

As usually defined, the viability is the share of living cells, or the viability signal relative to a control. In assay [1], `Cc1ccc(C2C3=C(CC(C)(C)CC3=O)Nc3c2c(C(C)(C)C)nn3-c2ccc(C)cc2)cc1` (stereo not shown) [Compound 964028, 3-t-butyl-4-(4-methylphenyl)-7,7-dimethyl-1-(4-methylphenyl)-4,7,8,9-tetrahydro-1H-pyrazolo[3,4-b]quinolin-5(6H)-one] came in with a 50% inhibitory concentration (IC50) of 1 µM. Also, the viability at 1 µM in assay [2] (setting [3]) was 42%; in assay [2] (setting [4]), 45.4%; in assay [2] (setting [5]) it was 43.7%.

In the case of `COc1ccc(-n2nc(C(C)(C)C)c3c2NC2=C(C(=O)CC(C)(C)C2)C3c2ccccc2Cl)cc1` (stereo not shown) [Compound 964076, 3-t-butyl-4-(2-chlorophenyl)-7,7-dimethyl-1-(4-methoxyphenyl)-4,7,8,9-tetrahydro-1H-pyrazolo[3,4-b]quinolin-5(6H)-one], the IC50 in assay [1] came to 3 µM. In addition, the viability at 1 µM is 41% in assay [2] (setting [3]), 53.2% in assay [2] (setting [4]) and 47.1% in assay [2] (setting [5]).

For `COc1ccc(OC)c(C2C3=C(CC(C)(C)CC3=O)Nc3c2c(C(C)(C)C)nn3-c2ccc(C)cc2C)c1` (stereo not shown) [Compound 964232], the concentration for half-maximal inhibition (IC50) in assay [1] was determined as 5 µM. In addition, the results for the viability at 1 µM in assay [2] (setting [3]), in assay [2] (setting [4]) and in assay [2] (setting [5]) were 45%, 71% and 58%, respectively.

In assay [1], `COc1ccccc1C1C2=C(CC(C)(C)CC2=O)Nc2c1c(C(C)(C)C)nn2-c1ccc(Cl)c(C)c1` (stereo not shown) [Compound 964247] registered an IC50 of 7 µM. Besides, the results for the viability at 1 µM in assay [2] (setting [3]), in assay [2] (setting [4]) and in assay [2] (setting [5]) were 42%, 43.7% and 42.9%, respectively.

As to `CC1(C)CC(=O)C2=C(C1)Nc1c(c(C(C)(C)C)nn1-c1ccc(Cl)c(Cl)c1)C2c1cccc(OCc2ccccc2)c1` (stereo not shown) [Compound 964260], the half-inhibitory concentration (IC50) in assay [1] was 8 µM. Further, the results for the viability at 1 µM in assay [2] (setting [3]), in assay [2] (setting [4]) and in assay [2] (setting [5]) were 41%, 53% and 47%, respectively.

Take `CC1(C)CC(=O)C2=C(C1)Nc1c(c(-c3ccccc3)nn1-c1cccc(F)c1)C2c1ccc(C(F)(F)F)cc1` (stereo not shown) [Compound 964661]: in assay [1], the half-inhibitory concentration (IC50) turned out to be 8 µM. In addition, the viability at 1 µM was 36% in assay [2] (setting [3]), 58.9% in assay [2] (setting [4]) and 47.5% in assay [2] (setting [5]).
